Results from ChEMBL document CHEMBL1201862, “PubChem BioAssay data set” (2004).
Active and inactive are the calls of the source.

How the values were obtained:
[1] = NIH-3T3 fibroblast cytotoxicity, dose response, cytotoxicity control, cell-based, fluorescence, Alamar Blue, secondary assay (AID 2327); format: functional;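 note: NIH-3T3 mouse fibroblasts cultured with fluconazole at 8 µg/mL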
[2] = molecular target: Envelope glycoprotein gp160 (Human immunodeficiency virus 1, UniProt Q6QLK5); assay: cell-free HIV fusion peptide-binding blockers – biochemical, uHTS, fluorescence dequenching, […] (AID 1986)
[3] = fluconazole-exposed Candida albicans growth modulators – fluorescence, retest, confirmation (AID 2467); format: functional, cell-based
[4] = system: Vero; assay: viability of Vero cells under compound – cytotoxicity control for flavivirus capping enzyme inhibitors (AID 588742); format: functional; conditions: Chlorocebus sabaeus
[5] = molecular target: T1, Short transient receptor potential channel 4 (Mus musculus, UniProt Q9QUQ5); assay: block of DAMGO-driven TRPC4 calcium entry – cell-based, HEK293 TRPC4/mu-opioid, Fluo-4 calcium, dose response (AID 434942); format: functional;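 note: potency of inhibitors blocking the TRPC4 calcium response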
T1 sequence (Q9QUQ5 whole entry): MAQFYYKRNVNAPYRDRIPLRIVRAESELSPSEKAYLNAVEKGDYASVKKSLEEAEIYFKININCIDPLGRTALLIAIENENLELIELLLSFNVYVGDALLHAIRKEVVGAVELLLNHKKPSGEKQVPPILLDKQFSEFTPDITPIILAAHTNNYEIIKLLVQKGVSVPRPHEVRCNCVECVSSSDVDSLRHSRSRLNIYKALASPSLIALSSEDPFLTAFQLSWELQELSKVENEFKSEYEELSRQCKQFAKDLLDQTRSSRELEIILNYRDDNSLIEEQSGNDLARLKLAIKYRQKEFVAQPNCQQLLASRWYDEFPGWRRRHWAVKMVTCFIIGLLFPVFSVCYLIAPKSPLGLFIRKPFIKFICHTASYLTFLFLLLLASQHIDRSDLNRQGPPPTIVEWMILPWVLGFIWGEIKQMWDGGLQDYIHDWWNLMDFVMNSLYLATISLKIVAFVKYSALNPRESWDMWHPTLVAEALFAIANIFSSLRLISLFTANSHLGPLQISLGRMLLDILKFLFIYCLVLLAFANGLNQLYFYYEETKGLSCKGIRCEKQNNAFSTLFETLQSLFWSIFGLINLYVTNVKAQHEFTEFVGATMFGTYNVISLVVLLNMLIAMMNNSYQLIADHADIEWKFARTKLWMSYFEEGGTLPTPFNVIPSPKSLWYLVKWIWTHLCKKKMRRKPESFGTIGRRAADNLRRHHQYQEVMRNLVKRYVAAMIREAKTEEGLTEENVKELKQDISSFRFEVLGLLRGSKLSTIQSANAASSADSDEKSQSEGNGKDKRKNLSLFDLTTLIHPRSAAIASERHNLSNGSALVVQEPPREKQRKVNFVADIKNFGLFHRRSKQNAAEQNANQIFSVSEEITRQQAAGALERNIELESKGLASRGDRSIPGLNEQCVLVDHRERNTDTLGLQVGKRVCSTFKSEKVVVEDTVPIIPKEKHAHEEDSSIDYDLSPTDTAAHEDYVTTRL

[6] = molecular target: Genome polyprotein (dengue virus type 2, UniProt P29990); assay: flavivirus cap methylation enzyme inhibition – biochemical, confirmation dose response, primary screen (AID 588689); format: functional
[7] = system: Candida albicans; assay: Candida growth inhibition combined with fluconazole – CaCi-2 strain, Alamar Blue, dry powder, set 3, dose response (AID 488907); format: functional, organism-based
[8] = system: Candida albicans; assay: C. albicans growth inhibition with fluconazole – CaCi-2 strain, Alamar Blue, dry powder, set 4, dose response (AID 488943); format: functional, organism-based
[9] = system: Candida albicans; assay: fluconazole-resistant Candida strain growth inhibitors – CaCi-8 strain, dry powder, set 4, dose response (AID 488950); format: functional, organism-based
[10] = system: Candida albicans; assay: resistant Candida growth with fluconazole co-treatment – CaCi-8 strain, Alamar Blue, dry powder, set 3, dose response (AID 488905); format: functional, organism-based
[11] = molecular target: Hexokinase-1 (Homo sapiens, UniProt P19367); assay: SAR analysis of small molecule inhibitors of hexokinase domain containing I (HKDC1) in the hexokinase 1 selectivity assay. [Related pubchem assays (depositor defined):AID493160, AID493190]; format: functional
[12] = molecular target: T2, Hexokinase HKDC1 (Homo sapiens, UniProt Q2TB90); assay: SAR analysis of small molecule inhibitors of hexokinase domain containing I (HKDC1). [Related pubchem assays (depositor defined):AID493160, AID493190]; format: functional
T2 sequence (Q2TB90 whole entry): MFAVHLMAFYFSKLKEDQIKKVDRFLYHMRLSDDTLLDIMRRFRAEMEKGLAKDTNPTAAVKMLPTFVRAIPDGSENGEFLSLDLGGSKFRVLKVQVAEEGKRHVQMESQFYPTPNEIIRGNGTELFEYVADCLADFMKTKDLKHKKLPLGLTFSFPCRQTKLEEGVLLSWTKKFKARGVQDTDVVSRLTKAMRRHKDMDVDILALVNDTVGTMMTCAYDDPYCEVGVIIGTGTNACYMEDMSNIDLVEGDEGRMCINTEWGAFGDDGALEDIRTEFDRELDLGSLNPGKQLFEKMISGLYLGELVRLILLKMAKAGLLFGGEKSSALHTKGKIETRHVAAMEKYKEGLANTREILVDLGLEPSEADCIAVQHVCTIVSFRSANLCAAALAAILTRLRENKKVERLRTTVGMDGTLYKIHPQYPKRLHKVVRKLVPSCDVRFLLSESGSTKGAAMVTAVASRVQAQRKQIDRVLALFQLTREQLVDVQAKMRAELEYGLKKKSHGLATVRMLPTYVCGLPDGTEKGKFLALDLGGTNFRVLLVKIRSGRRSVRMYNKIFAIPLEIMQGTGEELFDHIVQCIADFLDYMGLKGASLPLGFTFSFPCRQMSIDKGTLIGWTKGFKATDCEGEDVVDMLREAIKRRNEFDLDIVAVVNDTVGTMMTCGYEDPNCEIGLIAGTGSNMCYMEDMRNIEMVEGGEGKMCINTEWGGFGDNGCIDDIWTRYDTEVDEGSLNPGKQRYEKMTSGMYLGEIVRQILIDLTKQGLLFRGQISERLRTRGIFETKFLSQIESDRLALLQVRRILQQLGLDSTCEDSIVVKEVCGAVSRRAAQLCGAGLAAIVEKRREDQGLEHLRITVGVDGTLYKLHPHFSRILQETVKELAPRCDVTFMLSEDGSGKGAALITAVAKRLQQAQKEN

[13] = molecular target: Dual specificity protein phosphatase 3 (Homo sapiens, UniProt P51452); assay: SAR VHR1 Fluorescent Assay for In Vitro dose response studies Set 3. [Related pubchem assays (depositor defined):AID1654, AID1661, AID1878]; format: functional
[14] = molecular target: Voltage-gated inwardly rectifying potassium channel KCNH2 (Homo sapiens, UniProt Q12809); conditions: Potency;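 note: confirmatory quantitative high-throughput screen measuring inhibition of hERG channel activity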
[15] = system: Jurkat; assay: blockers of NF-kB activation in T cells – Jurkat, luciferase reporter, luminescence, B- and T-cell, dose response (AID 489004); format: functional, cell-based; conditions: Homo sapiens;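 note: NF-kB luciferase reporter Jurkat cells stimulated with PMA plus ionomycin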
[16] = microbe, parasite or virus in culture; format: functional; conditions: Mycobacterium tuberculosis
[17] = molecular target: T3, Ubiquitin-conjugating enzyme E2 N (Homo sapiens, UniProt P61088); format: functional
T3 sequence (P61088 whole entry): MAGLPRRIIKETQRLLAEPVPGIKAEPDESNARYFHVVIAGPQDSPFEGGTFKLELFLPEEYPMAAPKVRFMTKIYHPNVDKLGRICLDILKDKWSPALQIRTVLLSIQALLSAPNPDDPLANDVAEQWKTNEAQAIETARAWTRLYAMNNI

[18] = system: INS1; assay: INS-1E survival protection against cytokine death – cell-based, luminescence, retest, dose response (AID 449756); format: functional; conditions: Rattus norvegicus;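 note: cell death triggered by IL-1 beta plus TNF-alpha plus IFN-gamma mixture; protective hits raise ATP signal compared with cytokine alone wells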
[19] = molecular target: T3, Ubiquitin-conjugating enzyme E2 N; format: functional; remark: listed apart in the source
[20] = HEK-293T viability loss, compound-treated – cell-based, uHTS hits, cytotoxicity control for B/T-cell NF-kB inhibitor project, dose response (AID 489019); format: functional;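 note: IC50 reflects cytotoxicity as loss of cell viability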
[21] = molecular target: T4, Bcl-2-related protein A1 (Mus musculus, UniProt Q07440); format: functional;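 note: confirmatory dose–response counterscreen on Bfl-1, used to check hits from a UBC13 polyubiquitin inhibitor campaign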
T4 sequence (Q07440 whole entry): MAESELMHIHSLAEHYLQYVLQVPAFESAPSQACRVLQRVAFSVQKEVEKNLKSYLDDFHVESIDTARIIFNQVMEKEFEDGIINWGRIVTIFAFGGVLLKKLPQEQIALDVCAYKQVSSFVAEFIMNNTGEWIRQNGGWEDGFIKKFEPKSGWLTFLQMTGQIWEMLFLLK

[22] = molecular target: 5-hydroxytryptamine receptor 5A (Homo sapiens, UniProt P47898); assay: Counterscreen for agonists of OPRM1-OPRD1 heterodimerization: luminescence-based cell-based high throughput dose response assay to identify agonists of 5-hydroxytryptamine (serotonin) 5A receptor (HTR5A). [Related pubchem assays (depositor defined):AID504326, AID504355, AID504692, AID504904, AID504905]; format: functional
[23] = molecular target: Delta-type opioid receptor (Homo sapiens, UniProt P41143); assay: Counterscreen for agonists of heterodimerization of the mu 1 (OPRM1) and delta 1 (OPRD1) opioid receptors: Luminescence-based cell-based high throughput dose response assay to identify agonists of OPRD1 homodimerization. [Related pubchem assays (depositor defined):AID504326, AID504355, AID504692, AID504904, AID504905]; format: functional
[24] = molecular target: T5, CAAX prenyl protease 2 (Saccharomyces cerevisiae S288c, UniProt Q03530); format: biochemical
T5 sequence (Q03530 whole entry): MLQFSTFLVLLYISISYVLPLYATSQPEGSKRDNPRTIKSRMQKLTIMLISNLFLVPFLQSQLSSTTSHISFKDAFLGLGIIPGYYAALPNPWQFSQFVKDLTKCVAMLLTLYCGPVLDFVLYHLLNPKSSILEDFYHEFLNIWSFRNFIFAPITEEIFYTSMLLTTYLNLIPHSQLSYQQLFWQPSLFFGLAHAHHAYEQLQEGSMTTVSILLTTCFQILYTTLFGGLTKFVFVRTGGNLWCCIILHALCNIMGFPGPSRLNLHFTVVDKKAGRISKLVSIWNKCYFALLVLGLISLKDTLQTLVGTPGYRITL

[25] = NIH3T3 cell viability loss – ATP luminescence, mouse fibroblasts, counter-screen, dose response (AID 2010); format: functional, cell-based;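 note: cells exposed to compound for about 90 hours before reading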
[26] = molecular target: CAAX prenyl protease 2 (Homo sapiens, UniProt Q9Y256); assay: inhibition of Ras-converting CAAX protease Rce1 – biochemical, yeast membranes, quenched-peptide fluorescence, cherry-pick, dose response (AID 588849)
[27] = molecular target: Mu-type opioid receptor (Homo sapiens, UniProt P35372); assay: Counterscreen for agonists of heterodimerization of the mu 1 (OPRM1) and delta 1 (OPRD1) opioid receptors: Luminescence-based cell-based high throughput dose response assay to identify agonists of OPRM1 homodimerization.; format: functional;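 note: U2OS cells expressing OPRM1 and beta-arrestin as split beta-galactosidase partners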
[28] = Trypanosoma cruzi growth suppression in host cells – NIH3T3 host cells, beta-gal luminescence, confirmation (AID 2044); format: functional, cell-based;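 note: intracellular parasites grown in NIH/3T3 mouse fibroblasts as host cells; luminescent beta-galactosidase reporter signal from transgenic T. cruzi replicating inside host cells; inhibitors lower the luminescence signal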
[29] = molecular target: Phospholipase A2 (Homo sapiens, UniProt P04054); format: functional;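 note: confirmatory dose-response counterscreen on phospholipase A2, testing hits that came from an ultra-high-throughput screen for ATG4B inhibitors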
[30] = molecular target: Cysteine protease ATG4B (Homo sapiens, UniProt Q9Y4P1); format: functional;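 note: Fluorescence-based dose-response confirmation assay measuring inhibition of ATG4B activity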
Sequence of Cysteine protease ATG4B (Q9Y4P1 whole entry): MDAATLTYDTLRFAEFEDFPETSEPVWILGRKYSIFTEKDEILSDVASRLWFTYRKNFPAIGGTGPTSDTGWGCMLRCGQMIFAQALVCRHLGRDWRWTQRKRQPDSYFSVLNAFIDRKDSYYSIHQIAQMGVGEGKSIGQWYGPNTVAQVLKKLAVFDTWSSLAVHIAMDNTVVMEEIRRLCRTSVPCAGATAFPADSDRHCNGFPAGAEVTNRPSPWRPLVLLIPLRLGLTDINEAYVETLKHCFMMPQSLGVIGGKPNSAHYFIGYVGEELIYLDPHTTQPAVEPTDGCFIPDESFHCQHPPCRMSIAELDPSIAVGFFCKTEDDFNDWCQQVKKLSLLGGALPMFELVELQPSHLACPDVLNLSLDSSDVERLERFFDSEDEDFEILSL

Sequence of 5-hydroxytryptamine receptor 5A (P47898 whole entry): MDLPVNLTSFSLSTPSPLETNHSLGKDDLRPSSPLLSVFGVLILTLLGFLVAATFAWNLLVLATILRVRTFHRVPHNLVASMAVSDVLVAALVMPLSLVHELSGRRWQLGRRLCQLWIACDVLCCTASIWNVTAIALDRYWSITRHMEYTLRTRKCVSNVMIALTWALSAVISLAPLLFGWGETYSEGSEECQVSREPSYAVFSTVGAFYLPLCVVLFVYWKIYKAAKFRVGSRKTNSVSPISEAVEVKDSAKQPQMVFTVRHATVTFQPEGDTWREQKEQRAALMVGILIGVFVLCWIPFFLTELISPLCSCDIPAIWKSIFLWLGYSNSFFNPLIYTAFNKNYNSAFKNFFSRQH
Sequence of Delta-type opioid receptor (P41143 whole entry): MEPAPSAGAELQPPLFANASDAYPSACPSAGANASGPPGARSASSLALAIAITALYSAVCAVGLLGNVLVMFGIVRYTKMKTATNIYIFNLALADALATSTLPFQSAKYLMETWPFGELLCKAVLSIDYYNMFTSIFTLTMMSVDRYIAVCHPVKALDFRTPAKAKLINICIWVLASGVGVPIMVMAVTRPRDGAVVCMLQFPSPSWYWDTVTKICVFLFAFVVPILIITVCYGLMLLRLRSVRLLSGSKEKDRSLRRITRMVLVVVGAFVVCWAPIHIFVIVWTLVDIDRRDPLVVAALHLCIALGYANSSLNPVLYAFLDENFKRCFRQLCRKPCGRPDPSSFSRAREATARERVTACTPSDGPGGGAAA
Sequence of Genome polyprotein (P29990 2492-3391 limits assumed): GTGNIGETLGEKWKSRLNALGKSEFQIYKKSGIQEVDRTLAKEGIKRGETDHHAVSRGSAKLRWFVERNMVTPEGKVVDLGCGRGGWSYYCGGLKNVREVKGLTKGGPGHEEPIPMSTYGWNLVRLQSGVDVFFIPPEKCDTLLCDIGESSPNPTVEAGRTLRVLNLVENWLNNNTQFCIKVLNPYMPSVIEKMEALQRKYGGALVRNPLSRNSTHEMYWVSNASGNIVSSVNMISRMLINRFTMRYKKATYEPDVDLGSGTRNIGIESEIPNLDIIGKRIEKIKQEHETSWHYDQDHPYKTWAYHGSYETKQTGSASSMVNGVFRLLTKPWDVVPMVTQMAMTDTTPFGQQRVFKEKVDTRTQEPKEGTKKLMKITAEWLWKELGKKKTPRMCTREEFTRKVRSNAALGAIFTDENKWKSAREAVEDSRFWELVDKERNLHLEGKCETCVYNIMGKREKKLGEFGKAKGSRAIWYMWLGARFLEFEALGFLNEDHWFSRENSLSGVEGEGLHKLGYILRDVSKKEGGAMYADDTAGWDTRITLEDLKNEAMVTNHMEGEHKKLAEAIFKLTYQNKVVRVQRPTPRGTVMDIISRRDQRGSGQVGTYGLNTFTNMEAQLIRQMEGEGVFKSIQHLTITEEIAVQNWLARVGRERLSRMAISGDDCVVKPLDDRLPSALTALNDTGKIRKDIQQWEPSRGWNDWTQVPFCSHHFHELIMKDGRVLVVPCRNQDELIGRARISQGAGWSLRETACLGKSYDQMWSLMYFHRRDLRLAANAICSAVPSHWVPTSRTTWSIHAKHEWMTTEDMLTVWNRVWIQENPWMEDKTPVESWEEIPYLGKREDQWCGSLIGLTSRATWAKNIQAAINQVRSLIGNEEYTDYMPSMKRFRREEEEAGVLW
Sequence of Hexokinase-1 (P19367 whole entry, the tested form may be a part): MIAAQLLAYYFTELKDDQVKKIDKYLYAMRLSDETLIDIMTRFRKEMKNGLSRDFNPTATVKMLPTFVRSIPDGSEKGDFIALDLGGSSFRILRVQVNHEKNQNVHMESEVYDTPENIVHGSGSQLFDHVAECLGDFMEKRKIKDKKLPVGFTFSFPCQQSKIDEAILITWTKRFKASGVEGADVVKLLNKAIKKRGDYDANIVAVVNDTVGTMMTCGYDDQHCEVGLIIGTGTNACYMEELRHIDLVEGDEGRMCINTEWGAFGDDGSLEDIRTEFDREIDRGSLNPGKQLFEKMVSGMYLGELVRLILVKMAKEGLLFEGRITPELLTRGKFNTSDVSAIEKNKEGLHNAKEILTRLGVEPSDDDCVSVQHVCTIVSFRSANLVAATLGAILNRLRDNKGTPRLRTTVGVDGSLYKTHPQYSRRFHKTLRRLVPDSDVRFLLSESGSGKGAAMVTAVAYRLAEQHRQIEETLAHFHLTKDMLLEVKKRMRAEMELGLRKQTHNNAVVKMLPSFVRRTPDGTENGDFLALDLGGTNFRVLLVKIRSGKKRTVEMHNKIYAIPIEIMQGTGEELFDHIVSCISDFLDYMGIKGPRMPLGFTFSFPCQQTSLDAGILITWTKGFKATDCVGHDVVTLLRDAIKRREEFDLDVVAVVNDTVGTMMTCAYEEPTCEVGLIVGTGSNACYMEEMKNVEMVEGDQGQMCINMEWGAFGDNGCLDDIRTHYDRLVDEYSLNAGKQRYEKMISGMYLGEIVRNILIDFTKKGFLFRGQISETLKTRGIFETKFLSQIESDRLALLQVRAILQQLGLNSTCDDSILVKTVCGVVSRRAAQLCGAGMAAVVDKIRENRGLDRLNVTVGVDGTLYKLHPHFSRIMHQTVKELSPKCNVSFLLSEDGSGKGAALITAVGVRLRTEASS
Sequence of Mu-type opioid receptor (P35372 whole entry): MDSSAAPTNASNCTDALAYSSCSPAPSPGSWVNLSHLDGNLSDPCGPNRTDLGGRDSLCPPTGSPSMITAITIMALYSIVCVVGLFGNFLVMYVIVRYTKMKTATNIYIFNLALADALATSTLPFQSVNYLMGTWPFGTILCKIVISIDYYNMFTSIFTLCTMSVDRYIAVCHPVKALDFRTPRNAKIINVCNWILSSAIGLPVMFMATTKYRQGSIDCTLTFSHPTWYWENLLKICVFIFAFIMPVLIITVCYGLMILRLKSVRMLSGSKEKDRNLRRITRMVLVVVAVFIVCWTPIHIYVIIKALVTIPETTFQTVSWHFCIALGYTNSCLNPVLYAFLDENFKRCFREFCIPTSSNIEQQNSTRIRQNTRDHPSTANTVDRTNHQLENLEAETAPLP
Sequence of Voltage-gated inwardly rectifying potassium channel KCNH2 (Q12809 whole entry): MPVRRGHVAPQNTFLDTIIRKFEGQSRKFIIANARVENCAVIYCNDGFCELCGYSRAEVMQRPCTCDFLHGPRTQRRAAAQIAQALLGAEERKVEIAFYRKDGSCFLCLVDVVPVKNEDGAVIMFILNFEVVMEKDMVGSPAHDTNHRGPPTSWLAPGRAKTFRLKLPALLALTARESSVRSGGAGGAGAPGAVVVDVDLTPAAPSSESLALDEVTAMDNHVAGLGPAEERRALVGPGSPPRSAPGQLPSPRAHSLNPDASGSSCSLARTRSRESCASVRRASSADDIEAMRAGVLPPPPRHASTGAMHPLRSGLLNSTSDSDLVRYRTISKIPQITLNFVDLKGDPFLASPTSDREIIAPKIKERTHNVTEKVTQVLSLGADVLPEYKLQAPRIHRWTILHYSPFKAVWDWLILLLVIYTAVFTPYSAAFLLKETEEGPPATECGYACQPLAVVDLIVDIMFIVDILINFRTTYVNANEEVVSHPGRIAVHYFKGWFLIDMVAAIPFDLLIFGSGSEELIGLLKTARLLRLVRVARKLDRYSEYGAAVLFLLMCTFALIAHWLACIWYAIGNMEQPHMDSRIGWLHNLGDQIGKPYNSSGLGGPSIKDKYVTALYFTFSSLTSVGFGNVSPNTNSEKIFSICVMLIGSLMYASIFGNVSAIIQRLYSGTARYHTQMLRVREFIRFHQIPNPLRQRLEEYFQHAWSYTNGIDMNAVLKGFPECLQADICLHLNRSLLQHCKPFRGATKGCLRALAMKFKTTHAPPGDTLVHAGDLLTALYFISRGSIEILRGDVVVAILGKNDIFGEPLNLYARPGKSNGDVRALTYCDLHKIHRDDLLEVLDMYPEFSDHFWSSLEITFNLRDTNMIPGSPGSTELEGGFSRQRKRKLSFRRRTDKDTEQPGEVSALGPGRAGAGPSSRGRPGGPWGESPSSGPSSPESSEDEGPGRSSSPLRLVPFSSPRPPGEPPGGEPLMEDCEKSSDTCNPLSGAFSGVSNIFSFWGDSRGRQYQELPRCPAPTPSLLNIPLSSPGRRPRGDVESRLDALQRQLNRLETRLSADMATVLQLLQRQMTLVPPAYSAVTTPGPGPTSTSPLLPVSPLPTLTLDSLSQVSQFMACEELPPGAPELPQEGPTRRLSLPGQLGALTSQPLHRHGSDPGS
Sequence of Dual specificity protein phosphatase 3 (P51452 whole entry): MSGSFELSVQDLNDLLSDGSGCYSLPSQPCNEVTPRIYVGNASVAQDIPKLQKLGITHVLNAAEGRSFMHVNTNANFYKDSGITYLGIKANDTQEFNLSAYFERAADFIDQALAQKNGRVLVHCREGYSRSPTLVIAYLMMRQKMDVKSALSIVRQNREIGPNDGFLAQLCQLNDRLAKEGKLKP
Sequence of CAAX prenyl protease 2 (Homo sapiens, UniProt Q9Y256) (Q9Y256 whole entry): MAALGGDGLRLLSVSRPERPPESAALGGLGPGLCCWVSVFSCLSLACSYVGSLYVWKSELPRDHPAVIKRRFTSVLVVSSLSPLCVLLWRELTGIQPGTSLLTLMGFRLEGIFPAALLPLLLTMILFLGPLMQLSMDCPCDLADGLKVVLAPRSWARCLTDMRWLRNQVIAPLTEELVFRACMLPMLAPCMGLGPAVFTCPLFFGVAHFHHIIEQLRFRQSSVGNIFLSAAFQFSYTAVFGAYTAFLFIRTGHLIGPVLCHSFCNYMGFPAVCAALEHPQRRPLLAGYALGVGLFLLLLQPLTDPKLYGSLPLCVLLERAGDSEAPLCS

SMILES: CCc1ccc(/C=C2/SC(=S)N(CCCC(=O)Nc3ccccc3C(=O)O)C2=O)cc1
- EC50 [1]: 14 µM (inconclusive)
- IC50 [2]: > 99 µM (inactive)
- EC50 [3]: 4.17 µM (active)
- CC50 [4]: > 40 µM (active)
- EC50 [5]: 4.22 µM (active)
- IC50 [6]: 31.4 µM (active)

SMILES: O=C(c1ccc(Cl)cc1)N1CCN(c2ncccn2)CC1
- AC50 [7]: 570 nM (active)
- AC50 [8]: 3.81 µM (active)
- AC50 [9]: 2.91 µM (active)
- AC50 [10]: 17.6 µM (active)

SMILES: O=C(Nc1cccc(C(F)(F)F)c1)c1cccc(NC(=O)c2ccc3nccnc3c2)c1
- IC50 [11]: > 80 µM (inactive)
- IC50 [12]: > 80 µM (inactive)

SMILES: COc1cccc2sc(Nc3nnc(-c4ccccc4)o3)nc12
- IC50 [13]: 12 µM (active)

SMILES: c1ccc(P(c2ccccc2)c2ccccc2)cc1
- AC50 [14]: 14.1 µM (inconclusive)

SMILES: CCC(C)(C)c1ccc(OCCCC[n+]2ccc(C)cc2)c(C(C)(C)CC)c1
- EC50 [1]: > 160 µM (inactive)
- IC50 [15]: 4.32 µM (active)
- CC50 [16]: > 40 µM (active)
- EC50 [3]: 0.344 µM (active)
- IC50 [17]: > 20 µM (inactive)
- AC50 [18]: 1.26 µM (active)
- IC50 [19]: 12.6 µM (active)
- IC50 [20]: 62.2 µM (inactive)
- IC50 [21]: > 20 µM (inactive)

SMILES: CCN(Cc1ccccc1)S(=O)(=O)c1ccc(C(=O)N(CCCN(C)C)c2nc3c(C)c(C)ccc3s2)cc1
- EC50 [22]: > 92.4 µM (inactive)
- EC50 [23]: 78.9 µM (inactive)
- AC50 [24]: 11.6 µM (active)
- EC50 [25]: 5.55 µM (active)
- AC50 [26]: 18.9 µM (active)
- EC50 [27]: 56.3 µM (inactive)
- EC50 [28]: 373 nM (active)

SMILES: Cc1ccc(C(=O)NC(=S)Nc2ccccc2C(F)(F)F)cc1C
- IC50 [29]: 6.91 µM (active)
- IC50 [30]: 14.6 µM (active)
